Measurements: US11026991B2, “Compositions and methods of use thereof to promote muscle growth and function” (Worlds Greatest Ingredients, LP, priority 2018, dated 2021)
Like-named read-outs stand apart in the source and are kept apart here.

Conditions: in vivo; for Plasma Isoleucine Concentrations After Ingestion / Plasma Leucine Concentrations After Ingestion / Plasma Lysine Concentrations After Ingestion / Plasma Methionine Concentrations After Ingestion / Plasma Phenylalanine Concentrations After Ingestion / Plasma Threonine Concentrations After Ingestion / Plasma Tryptophan Concentrations After Ingestion / Plasma Valine Concentrations After Ingestion / Total Plasma BCAA Concentrations After Ingestion / Total Plasma EAA Concentrations After Ingestion / Plasma Leucine Delta Change Relative to Baseline Values / Plasma Leucine Percent Change Relative to Baseline Values / relative increase in plasma leucine from Pre / elevation in plasma leucine relative to baseline, times greater than the other condition: male, human
Experimental: The subject came into the laboratory fasted prior to the testing days. […] On Day 1, they were randomized to consume 1 of the 2 conditions. Following, consumption of the fluid mixture (8 oz. water), plasma amino acids were measured at 30, 60, 90, and 120 minutes. A 72-hour washout took place followed by the 2nd condition following the same procedures.
The dosage used in this study was either 2 grams of di-leucine (condition Ce) or 2 grams of leucine (condition C4).

increase in plasma lysine, times greater than the other condition: 19 ×
increases in total EAA concentration relative to baseline (range): 9.4% to 16.3%
plasma phenylalanine change relative to Pre values (range): −16.0% to −3.5%
Plasma Isoleucine Concentrations After Ingestion: 45.75 nmol/L
Plasma Leucine Concentrations After Ingestion: 92.25 nmol/L
Plasma Lysine Concentrations After Ingestion: 121.19 nmol/L
Plasma Methionine Concentrations After Ingestion: 18.77 nmol/L
Plasma Phenylalanine Concentrations After Ingestion: 48.61 nmol/L
Plasma Threonine Concentrations After Ingestion: 87.38 nmol/L
Plasma Tryptophan Concentrations After Ingestion: 45.00 nmol/L
Plasma Valine Concentrations After Ingestion: 230.43 nmol/L
Total Plasma BCAA Concentrations After Ingestion: 368.43 nmol/L
Total Plasma EAA Concentrations After Ingestion: 689.38 nmol/L
Plasma Isoleucine Concentrations After Ingestion (30 min): 34.44 nmol/L
Plasma Leucine Concentrations After Ingestion (30 min): 198.33 nmol/L
Plasma Leucine Delta Change Relative to Baseline Values (30 min): 106.09 nmol/L
Plasma Leucine Percent Change Relative to Baseline Values (30 min): 115.0%
Plasma Lysine Concentrations After Ingestion (30 min): 135.48 nmol/L
Plasma Methionine Concentrations After Ingestion (30 min): 16.61 nmol/L
Plasma Phenylalanine Concentrations After Ingestion (30 min): 42.44 nmol/L
Plasma Threonine Concentrations After Ingestion (30 min): 76.42 nmol/L
Plasma Tryptophan Concentrations After Ingestion (30 min): 40.12 nmol/L
Plasma Valine Concentrations After Ingestion (30 min): 210.39 nmol/L
Total Plasma BCAA Concentrations After Ingestion (30 min): 443.16 nmol/L
Total Plasma EAA Concentrations After Ingestion (30 min): 754.23 nmol/L
relative increase in plasma leucine from Pre (30 min): 106.09 nmol/mL
Plasma Isoleucine Concentrations After Ingestion (60 min): 33.30 nmol/L
Plasma Leucine Concentrations After Ingestion (60 min): 146.70 nmol/L
Plasma Leucine Delta Change Relative to Baseline Values (60 min): 54.45 nmol/L
Plasma Leucine Percent Change Relative to Baseline Values (60 min): 59.0%
Plasma Lysine Concentrations After Ingestion (60 min): 128.45 nmol/L
Plasma Methionine Concentrations After Ingestion (60 min): 15.94 nmol/L
Plasma Phenylalanine Concentrations After Ingestion (60 min): 40.84 nmol/L
Plasma Threonine Concentrations After Ingestion (60 min): 75.83 nmol/L
Plasma Tryptophan Concentrations After Ingestion (60 min): 43.54 nmol/L
Plasma Valine Concentrations After Ingestion (60 min): 200.61 nmol/L
Total Plasma BCAA Concentrations After Ingestion (60 min): 380.61 nmol/L
Total Plasma EAA Concentrations After Ingestion (60 min): 685.20 nmol/L
relative increase in plasma leucine from Pre (60 min): 54.45 nmol/mL
Plasma Isoleucine Concentrations After Ingestion (90 min): 40.37 nmol/L
Plasma Leucine Concentrations After Ingestion (90 min): 181.67 nmol/L
Plasma Leucine Delta Change Relative to Baseline Values (90 min): 89.42 nmol/L
Plasma Leucine Percent Change Relative to Baseline Values (90 min): 96.9%
Plasma Lysine Concentrations After Ingestion (90 min): 134.15 nmol/L
Plasma Methionine Concentrations After Ingestion (90 min): 19.30 nmol/L
Plasma Phenylalanine Concentrations After Ingestion (90 min): 46.94 nmol/L
Plasma Threonine Concentrations After Ingestion (90 min): 91.05 nmol/L
Plasma Tryptophan Concentrations After Ingestion (90 min): 46.58 nmol/L
Plasma Valine Concentrations After Ingestion (90 min): 225.20 nmol/L
Total Plasma BCAA Concentrations After Ingestion (90 min): 447.24 nmol/L
Total Plasma EAA Concentrations After Ingestion (90 min): 785.26 nmol/L
elevation in plasma leucine relative to baseline, times greater than the other condition (90 min): 2.6 ×
Plasma Isoleucine Concentrations After Ingestion (120 min): 36.47 nmol/L
Plasma Leucine Concentrations After Ingestion (120 min): 158.84 nmol/L
Plasma Leucine Delta Change Relative to Baseline Values (120 min): 66.59 nmol/L
Plasma Leucine Percent Change Relative to Baseline Values (120 min): 72.2%
Plasma Lysine Concentrations After Ingestion (120 min): 171.18 nmol/L
Plasma Methionine Concentrations After Ingestion (120 min): 19.19 nmol/L
Plasma Phenylalanine Concentrations After Ingestion (120 min): 45.40 nmol/L
Plasma Threonine Concentrations After Ingestion (120 min): 90.94 nmol/L
Plasma Tryptophan Concentrations After Ingestion (120 min): 44.81 nmol/L
Plasma Valine Concentrations After Ingestion (120 min): 234.78 nmol/L
Total Plasma BCAA Concentrations After Ingestion (120 min): 430.08 nmol/L
Total Plasma EAA Concentrations After Ingestion (120 min): 801.61 nmol/L
elevation in plasma leucine relative to baseline, times greater than the other condition (120 min): 1.5 ×
SMILES: CC(C)C[C@H](N)C(=O)O [Condition C4, leucine]
